The record followed here is patent US8900851B2, “Multi-well platform” (The Research Foundation for the State University of New York, priority 2008, dated 2014).

One series relates to MDA-MB-231 cells. Description: transwell chamber migration assay, MDA-MB-231 cells. In kind it is cell-based, human.
For a further series, the system named is MCF-7 cells. Kind of series: transwell chamber migration assay, MCF-7 cells. In kind it is cell-based, human. Conditions: FIG. 17B. Here is the method:
(§1) MCF-7 cells were left untreated or treated with an inhibitor of DNA methyltransferase, […] (5-aza-dC). Expression of C43 was monitored by a real time RT PCR approach and cell migration ability was determined by a transwell chamber migration assay.

Series [1] concerns C43. Description: C43 expression by real time RT PCR in MDA-MB-231 cells. In kind it is cell-based, human.
For series [2], the system named is C43. Kind of series: C43 expression by real time RT PCR in MCF-7 cells. In kind it is cell-based, human. Conditions: MCF-7 cells treated vs untreated, FIG. 17A. How it is done: as §1
Series [3] relates to human breast cancer MDA-MB-231 cells. Description: 3D invasion assay with well-established inhibitory compounds. In kind it is cell-based. The conditions noted are these: data not shown. An excerpt: To increase the throughput as well as to standardize and automate the readout using imaging software, we have designed and tooled a 96-well plate with a 2.1 mm3 pit in the center of each well. This tooled plate restricts the cell/matrix mixture to an identical pit (size and location) within each well, thus permitting automated microscopic imaging of cell invasion (FIG. 19). To test if imaging acquisition and data analysis can be automated, we have employed a motorized stage (Prior Scientific, Inc.) installed on the existing Nikon TE2000s inverted microscope. The automated microscopy system is controlled by the NIS-Elements imaging software (Nikon) for imaging acquisition and data analysis. Using a 10× objective, we have shown that it takes 6 minutes to scan the entire 96 well plate. To quantitatively analyze cells that invade into the matrix, using both phase contrast and nuclear-stained images is optimal.
To establish the efficacy of the assay for screening libraries, we have tested the effect of well-established inhibitory compounds on cell invasion. […] Moreover, this 3D invasion assay is simple, precise, easy to replicate, and has multiple applications.

Series [4] deals with HT1080 and/or human breast cancer MDA-MB-231 cell. Description: 3D invasion assay, positive controls. In kind it is cell-based. The conditions noted are these: positive controls in culture medium, HT1080 and/or MDA-MB-231 cells. Here is the method: HT1080 cells and/or human breast cancer MDA-MB-231 cells (4×10^7/ml) mixed with type I collagen (1.5 mg/ml at final) are dispensed into the cell-holding wells in invasion assay plates (2 ul/well, optimum volume) using the liquid handling system at 4° C. working temperature to prevent the collagen from solidifying within the liquid handling system. After dotting, the plate is inserted in an incubator chamber at 37° C. for 15 min followed by the addition of type I collagen to cover the gelled cell aggregates. […] Images are acquired from transmission (phase contrast) and fluorescence (DAPI) sources by an external light shutter device that gathers two images per time point in time-lapse sequences. […] Data analysis will be performed using NIS-Element imaging software (Nikon) based on pre-determined criteria.
The following steps will be performed to screen the compound library targeting cancer cell migration/invasion using the automated 3D invasion HTS system: 1) Cell plating: HT1080 cells and/or human breast cancer MDA-MB-231 cells are used for selecting inhibitory compounds because these cells display invasive ability and represent mesenchymal cancer cells. […] Images acquired by an automated Nikon inverted microscope (TE2000s) equipped with a motorized stage (Prior Scientific) are then analyzed using the NIS-Elements software (Nikon). […]

The subject of series [5] is MDA-MB-435 cells. Description: cell morphology of MDA-MB-435 cells expressing shRNA (DIC microscopy). The conditions noted are these: MDA-MB-435 cells cultured on plastic dishes. In kind it is cell-based, human. An excerpt:
(§2) Left panel: Loss of invasive ability of MDA-MB-435 cells by downregulation of C43. MDA-MB-435 cells expressing Luciferase shRNA control, C43 shRNA-2 and -3 were examined by the 3D invasion assay after 8 days. […] MDA-MB-435 cells expressing Luciferase shRNA shRNA, C43 shRNA-2 and -3 cultured on plastic dishes were observed under inverted microscopy with differential interference contrast (DIC).

For series [6], the system named is MDA-MB-435 cells. Kind of series: 3D invasion assay, MDA-MB-435 cells expressing shRNA. In kind it is cell-based, human. The conditions noted are these: 3D invasion assay after 8 days, vs Luciferase shRNA control.
Source text: as §2
The following methodology permits the detection of cancer cell invasion into a collagen matrix and the inhibitory activity of anti-cancer drugs. This assay is useful in identifying pharmacologic agents (drugs) that interfere with cancer progression. […] Invading cancer cells leaving the perimeter of the original collagen droplet are readily visualized extending into the surrounding collagen matrix after 18 h incubation. Both qualitative and quantitative analyses are performed microscopically. The invasive ability of cancer cells (cells outside the original droplet), as well as the effect of pharmacologic agents on the cancer cell invasion, can be determined microscopically. The effect of pharmacologic agents on invasion of cancer cells is determined by counting invading cells in the presence versus the absence of pharmacologic agents. […] This assay will be readily adaptable for high throughput screening of libraries of compounds that may be useful for cancer treatment. […]

The test system of series [7] is C43. Description: shRNA effect on endogenous C43 expression, real time RT PCR in MDA-MB-435 cells. In kind it is cell-based, human. The conditions noted are these: retroviral shRNA delivery. How it is done:
A) Overexpresison of C43 enhanced cell migration. COS-1 cells and MCF-7 cells transfected with vector control (1 & 4), C43 (2 & 5) or MT1-MMP (3 & 6, positive control) cDNAs were evaluated by a Transwell Chamber migration assay after 6 hours. The cells were fixed and migratory cells were counted under microscopy with 20× objective. Ten fields were examined for each transfected cells. Each bar represents the mean±SE. B) Enhanced cell migration in MCF-7 cells expressing C43-GFP chimera. Minimally invasive human breast cancer MCF-7 cells stably transfected with GFP control and C43-GFP chimeric cDNA were mixed with type I collagen and dotted onto a 96-well plate. […] Cell migration was determined under microscopy. […]
Small interfering oligonucleotides specific for either C43 or luciferase (control) to express short hairpin RNA (shRNA) were designed using an online software system (Block-iT RNAi Designer; Invitrogen) for mammalian RNA interference. Specific 21-nucleotide sequences spanning nucleotides […] of the human C43 gene (see FIG. 2: SEQ ID NO: 1) and nucleotides 103-123 of luciferase from firefly Pyrocoelia pectoralis as a control were synthesized by Operon Biotechnologies, Inc. Annealed double stranded oligonucleotides were cloned into the RNAi-Ready pSIREN-Retra Q vector (Clontech). […]

Series [8] has as its system MDA-MB-435 cells. Description: cell proliferation of MDA-MB-435 cells expressing shRNA. The conditions noted are these: MDA-MB-435 cells in culture. In kind it is cell-based, human.
Source text: as §2
(§3) As summarized in FIG. 1, 2×10^6 MDA-MB-435 cancer cells expressing either C43 shRNA or luciferase shRNA control were orthotopically injected into mammary tissue of nu/nu immunodeficient mice. Tumor growth was measured with calipers twice a week. Tumor size was determined using the formula: (tumor size=tumor diameter(×)square root of tumor diameter(÷)2). […] In contrast to in vivo tumor growth, downregulation of C43 had no effect on cancer MDA-MB-435 cell proliferation in tissue culture (not shown), emphasizing the unique role of C43 on protease-independent aspects of cell invasion and tumor progression.

In the next series the test system is MDA-MB-435 cancer cells. Description: orthotopic implantation of MDA-MB-435 cells expressing shRNA into immunodeficient mice. In kind it is in vivo, nu/nu immunodeficient mice.
Source text: FIG. 1 depicts tumor growth and survival curves comparing the effect of C43 shRNA (SEQ ID NO: 2) (FIG. 1A) and control luciferase shRNA (FIG. 1B) on tumor appearance, progression, and survival following orthotopic implantation of MDA-MB-435 breast cancer cells into immunodeficient mice.
as §3

For series [9], the system named is C43. Kind of series: Northern blot analysis of C43 in HT1080 cells. Conditions: FIG. 11A. In kind it is cell-based, human. An excerpt: Total RNAs of MCF-7 cells, HT1080 or HT1080 cells treated with Con A were probed with p^32-labeled C43 probe. A single 9.5 kb mRNA transcript corresponding to C43 was detected (arrowhead). Con A enhances C43 expression in HT1080 cells. B) Expression of C43 in transfected COS-1 cells: COS-1 cells transfected with vector or C43-Myc chimera were examined by Western blotting using anti-Myc antibody. C43 was detected as a 150 kDa protein band along with degradation products.

Take `Nc1ncn([C@H]2C[C@H](O)[C@@H](CO)O2)c(=O)n1` [5-aza-dC, a-aza-deoxycytined]: the cell migration result is given as “No effect” in the series with MDA-MB-231 cells and “enhanced” with MCF-7 cells. Besides, the C43 expression entry with C43 [1] was “No effect”. In addition, the “endogenous C43 expression” value with C43 [2] is reported as “increased”.

As to `COc1cccc(-c2cc(=O)c3ccccc3o2)c1N` [PD98059], the “inhibition of cell invasion” value in series [3] is “dose-dependent inhibition”. Also, the cell invasion entry in [4] is given as “block”.

For the compound “C43 shRNA-2: C43 shRNA sequence GTGGAAGACCATATTGAATAT, nt 1104”, the cell morphology entry in the series with MDA-MB-435 cells [5] is “Change of cell morphology”. Besides, in the series on MDA-MB-435 cells [6], the cell invasive ability result is given as “loss of cell invasive ability”. Also, in the series with C43 [7], the “endogenous C43 expression” value was “significantly decrease”. Also, the cell proliferation entry in the series with MDA-MB-435 cells [8] is listed as “does not alter”.

As to “C43 shRNA-3: C43 shRNA sequence GCCTCTCCATCCATCATACATT, nt 1997”, the cell morphology entry in the series on MDA-MB-435 cells [5] was “Change of cell morphology”. Moreover, in the series on MDA-MB-435 cells [6], the cell invasive ability entry is listed as “loss of cell invasive ability”. For the same compound, the “endogenous C43 expression” value in the series with C43 [7] was “significantly decrease”. Further, the cell proliferation result with MDA-MB-435 cells [8] is reported as “does not alter”.

With “C43 shRNA: 21-nucleotide C43 shRNA CCTCTCCATCCATCATACATT spanning nucleotides 1735-1757 of SEQ ID NO: 1 (chemistry not given here; listed as Homo sapiens)”, the “tumor appearance and progression” value in the series on MDA-MB-435 cancer cells (2×10^6 MDA-MB-435 cells orthotopically injected into mammary tissue, vs luciferase shRNA control, FIG. 1A) is “delayed”. The survival entry in the series on MDA-MB-435 cancer cells (orthotopic MDA-MB-435, vs luciferase shRNA control mice, FIG. 1B) is on record as “prolonged”. Besides, the cell proliferation result in the series on MDA-MB-435 cells [8] is on record as “no effect”.

Turning to Concanavalin A [Con A], in the series on C43 [9], the C43 expression result is “enhances”.
